{"source": "patent US8715726B2", "about": "(Eurofarma Laboratories S.A., priority 2007, dated 2014)", "origin": "cited, not measured here", "data": [{"smiles": "COc1cccc(C2(O)CCCCC2CN(C)C)c1", "note": "(stereo not drawn) [Tramadol, 2-((dimethylamino)methyl)-1-(m-methoxyphenyl)-cyclohexanol]", "values": [{"measurement": "metabolism", "setting": "in vivo", "value": "extensively metabolised in the liver"}, {"measurement": "dose excreted in the form of metabolites", "setting": "oral administration", "value": 60, "unit": "%"}, {"measurement": "dose excreted in the urine not having been metabolised", "setting": "oral administration", "value": "Approximately 30%"}]}]}
